{"source": "patent US20120270744A1", "about": "“METHODS TO DETERMINE IF A SUBJECT WILL RESPOND TO A BCR-ABL INHIBITOR” (Oregon Health & Science University, priority 2007, published 2012)", "key": {"[1]": {"tested_on": "Lin−/CD34+/CD38+ and Lin−/CD34+/CD38− CML cells", "experiment": "Culture of sorted primitive CML cells with imatinib: growth and viability", "type": "cell-based, human", "settings": "5 μM imatinib, physiological concentrations of cytokines", "procedure": "FIGS. 9A-9C are a set of graphs dot plots and digital images of Western blots showing viable cells and phosphotyrosine content following treatment with a BCR-ABL inhibitor. […] (FIG. 9B) After 2 hours, immunoblot analysis of cellular extracts for Crkl phosphorylation was preformed. (FIG. 9C) Aliquots from the same cultures were analyzed by FACS analysis for total cellular phosphotyrosine content. Results were identical after 96 hours of culture.\nA combination of lineage-depletion columns and high speed sorting was used to select highly pure populations of Lin−/CD34+/CD38+(enriched for progenitor cells) and Lin−/CD34+/[…] (enriched for stem cells). […] It was concludes that survival of primitive CML cells may not require BCR-ABL kinase activity, implicating BCR-ABL-independent extrinsic or intrinsic mechanisms in the maintenance of viability."}, "[2]": {"tested_on": "patients with CML in chronic phase", "settings": "cited from earlier work; for risk of progression to accelerated phase or blast crisis: at 5 years"}, "CML CD34+ cells": {"tested_on": "CML CD34+ cells", "experiment": "Centrifugal adhesion assay to fibronectin with fluorescently labeled cells", "type": "cell-based, human", "description": "(FIG. 10A) Adhesion under the carious conditions. (FIG. 10B) Fold expansion of viable cells. (FIG. 10C) Recovery of CFU-GM.\nTo reliably quantify adherence we modified the McClay (1981 PNAS 78:4975-9) centrifugal adhesion assay, using fluorescently labeled cells."}, "[3]": {"tested_on": "newly diagnosed chronic phase CML patients", "experiment": "Cytogenetic response of validation set patients treated with imatinib", "type": "in vivo, human", "settings": "within 12 months, 23 newly diagnosed chronic phase patients"}}, "note": "Read-outs that look alike come from different tables or passages of the source."}
{"smiles": "Cc1ccc(NC(=O)c2ccc(CN3CCN(C)CC3)cc2)cc1Nc1nccc(-c2cccnc2)n1", "note": "[imatinib]", "values": [{"measurement": "viability", "setting": "[1]", "value": "viability was maintained"}, {"measurement": "growth (total number of viable cells over time)", "setting": "[1]; preliminary experiments N=4", "value": "reduced to approximately the level of normal cells"}, {"measurement": "projected overall survival", "setting": "[2]; 60 months of follow-up", "value": 89, "unit": "%"}, {"measurement": "patients who progressed to accelerated phase or blast crisis", "setting": "[2]; among those who lost response", "value": 7, "unit": "%"}, {"measurement": "risk of progression to accelerated phase or blast crisis", "setting": "[2]; patients in complete cytogenetic response after 12 months of therapy", "value": 3, "unit": "%"}, {"measurement": "risk of progression to accelerated phase or blast crisis", "setting": "[2]; patients with primary cytogenetic resistance", "value": 19, "unit": "%"}, {"measurement": "patients with primary cytogenetic resistance (failed to attain a major cytogenetic response)", "setting": "[2]; at 12 months", "value": "approximately 14%"}, {"measurement": "patients who lost their response", "setting": "[2]; human, in vivo", "value": "approximately 16%"}, {"measurement": "cumulative rate of complete cytogenetic response (CCyR, 0% Ph+ metaphases)", "setting": "[2]; newly diagnosed CML in chronic phase, imatinib as initial therapy, 60 months of follow-up", "value": 87, "unit": "%"}, {"measurement": "spontaneous adhesion to fibronectin", "setting": "CML CD34+ cells; imatinib 5 micoM, 96 hours culture", "value": "further reduced"}, {"measurement": "adhesion to fibronectin", "setting": "CML CD34+ cells; imatinib in presence of beta1 integrin activating antibody B44", "value": "again reduced"}, {"measurement": "patients who achieved CCyR", "setting": "[3]", "value": 74, "unit": "%"}]}
